The test system of the assay is immobilized GST-tagged bait protein domains. The experiment in a line: ProP-PD phage selections (HD2 P8, sublibraries, HD2 P3, HD1 P8) with NGS and confidence level. The class given is binding, human. The following applies: for confidence / HD confidence / HD count proportions / HD mean counts: library HD; for confidence: ProP-PD peptides with disease-related mutations; for HD count proportions: mean normalised NGS counts; for HD mean counts: mean raw NGS counts, all selections; for p3_HD2 confidence / p3_HD2 mean counts / p3_HD2 count proportions: HD2 P3 library; for p3_HD2 confidence: confidence level (4 = High, 2-3 = Medium, 1 = Low); for p3_HD2 mean counts: mean NGS counts over replicate selections; for p3_HD2 count proportions: mean proportion of NGS counts.

The mark [1] stands for this setting: library HD2, bait EPS15_EH__P42566_121_215, whether the validated benchmark motif instance was recovered in the ProP-PD selection (TRUE/FALSE).
Where [2] appears, read: bait MAP1LC3A_ATG8 (Q9H492 2-121), HD2 library, benchmark motif instance recovered in the ProP-PD selection (TRUE/FALSE).
Where [3] appears, read: bait MAP1LC3B_ATG8 (Q9GZQ8 2-119), HD2 library, benchmark motif instance recovered in the ProP-PD selection (TRUE/FALSE).
The mark [4] stands for this setting: library HD2, bait KLC1_TPR__Q07866_203_497, whether the validated benchmark motif instance was recovered in the ProP-PD selection (TRUE/FALSE).
Where [5] appears, read: bait AP2B1_adaptin__P63010_700_937.
Where [6] appears, read: HD2 library, bait SUMO1_SUMO__P63165_1_101, known motif instance of the benchmarking set found (TRUE) or not found (FALSE) among selected peptides.
The mark [7] stands for this setting: bait KPNA4_Arm (O00629 68-487), HD2 library, benchmark motif instance recovered in the ProP-PD selection (TRUE/FALSE).
Where [8] appears, read: library HD2, bait YES1_SH3__P07947_90_152, validated benchmark motif instance, in_library_check TRUE, TRUE/FALSE = instance recovered in ProP-PD selection.
[9] abbreviates: bait ANKRA2_Ank__Q9H9E1_142_313, HD2 P8 selection, confidence level -4 to 4: 4 = High, 3 or 2 = Medium, 1 = Low, 0 = Filtered/Noise.
Setting [10] is: bait MDM2_p53-binding-domain (Q00987 17-125), HD2 library, benchmark motif instance recovered in the ProP-PD selection (TRUE/FALSE).
The mark [11] stands for this setting: bait PEX14_Pex14__O75381_16_84, HD2 library, whether the validated benchmark motif instance was recovered in the ProP-PD selection (TRUE/FALSE).
Setting [12] is: bait PABP-B_PABP__P11940_544_623, HD2 library, whether the validated benchmark motif instance was recovered in the ProP-PD selection (TRUE/FALSE).
Where [13] appears, read: library HD2, bait Keap1_KELCH__Q14145_321_609, whether the validated benchmark motif instance was recovered in the ProP-PD selection (TRUE/FALSE).
The mark [14] stands for this setting: bait MDM2_p53-binding-domain (Q00987 17-125), HD2 library, confidence level (1-4) of best matching peptide.
Where [15] appears, read: bait MDM2_p53-binding-domain (Q00987 17-125), HD2 library, specificity score of best matching peptide.

Consider DRHRIEEKRKRTYETFKSIMK [RELA 301-307], for which the motif_found entry (HD2 library, bait KPNA4_Arm__O00629_68_487, benchmark motif instance, in_library_check FALSE, in_library_coverage 0) is recorded as “FALSE”.
With DSFYNNSYNPFKEVQTPQY, the motif_found entry under setting [1] is “FALSE”.
For DSSCDTDDFVMVPAQFPGD, the motif_found entry by setting is: under setting [2], “FALSE”; under setting [3], “FALSE”.
With DSSKDSGFTIVSPLDI, the motif_found result under setting [3] was “TRUE”. Further, the best_confidence (bait MAP1LC3B_ATG8 (Q9GZQ8 2-119), HD2 library, confidence level (1-4) of best matching peptide) turned out to be 4. The substance also showed a best_specificity (bait MAP1LC3B_ATG8 (Q9GZQ8 2-119), HD2 library, specificity score of best matching peptide) of 1.
As to DTGKENEMDWDDSALTITVNPMET, the motif_found result under setting [4] is recorded as “FALSE”.
Take DTHAKWEQATKLILNY: the confidence (bait CALM1_EF-hand__P0DP23_2_149) is on record as 3.
With DTLWRPMPKLAPLGLKVAN, under “library HD2, bait ZMYND11_coiled-coil-MYND__Q15326_480_602, validated benchmark motif instance, in_library_check TRUE, TRUE/FALSE = instance recovered in ProP-PD selection”, the motif_found entry was “FALSE”.
With DVDYFGQQFDQISNRT, under setting [5], the HD confidence worked out at 2, the HD count proportions came to 0.1904 and the HD mean counts is listed as 883.25.
Consider DWSNLVDAAKAYEVQR, for which the HD2-1mM_CaCl confidence (bait CALM1 EF-hand (P0DP23, 2-149), HD2 library selection with 1mM_CaCl, confidence level (4 = High, 2 or 3 = Medium, 1 = Low)) is listed as 2. Further, the HD2 confidence (bait CALM1 EF-hand (P0DP23, 2-149), HD2 library selection, confidence level (4 = High, 2 or 3 = Medium, 1 = Low)) was 3.
Take DYDQSRTKVLHMSLNPTSVARQR: where the note is “bait MAD2L1_HORMA (Q13257 1-205), HD2 library, benchmark motif instance recovered in the ProP-PD selection (TRUE/FALSE)”, the motif_found entry is “FALSE”.
For DYESDDDSYEVLDLTEY, the motif_found result under setting [3] is given as “FALSE”.
Consider DYFDYESTNPFTAKFRASN, for which the motif_found entry under setting [1] is recorded as “FALSE”.
For EASKKKVDVIDLTIESSSDE, the motif_found result under setting [6] is recorded as “FALSE”.
Consider EATNTTSEPSAPSQDLLDLS, for which, under “HD2 library, bait TSG101_UEV__Q99816_1_145, known motif instance of the benchmarking set found (TRUE) or not found (FALSE) among selected peptides”, the motif_found result is listed as “FALSE”.
Regarding ECISSAMPKKKKPSRLKGDNE, the motif_found entry under setting [7] is on record as “FALSE”.
As for EDSPLLEDWDIISPKDVIG [TBC1D25 135-139], the motif_found entry is, setting by setting: (HD2 library, bait MAP1LC3A_ATG8__Q9H492_2_121, benchmark motif instance, in_library_check FALSE, in_library_coverage 0) “FALSE”; (HD2 library, bait MAP1LC3B_ATG8__Q9GZQ8_2_119, benchmark motif instance, in_library_check FALSE, in_library_coverage 0) “FALSE”.
As to EEARKSPTPSAPVPLTEPAA, the motif_found entry (library HD2, bait TSG101_UEV__Q99816_1_145, validated benchmark motif instance, in_library_check TRUE, TRUE/FALSE = instance recovered in ProP-PD selection) is “FALSE”.
Consider EEDQILKKPLPPEPAAAPVST, for which the motif_found entry under setting [8] is given as “FALSE”.
On to EEEEAVAGNPFIQPDSPAP, for which the motif_found result under setting [1] was “FALSE”.
For the substance EEEELDESNPFYEPKSTPP, the motif_found entry under setting [1] is “FALSE”.
EEEMEVPVLPKISLPI showed an HD2 confidence under setting [9] of 2.
On to EETFQLSRWTPFIKDI, for which, under setting [5], the HD confidence is reported as 3, the HD count proportions is recorded as 0.004596 and the HD mean counts amounted to 9.0.
In the case of EFLSPEVFQHIWDFLEQPICSV, under setting [10], the motif_found result is “FALSE”.
For the substance EGALGGAFPPPPPPIEESF, the motif_found entry (library HD2, bait VASP_EVH1__P50552_1_114, validated benchmark motif instance, in_library_check TRUE, TRUE/FALSE = instance recovered in ProP-PD selection) is “FALSE”.
Consider EGTATDRWYDEYHPEEDLQ, for which the motif_found entry under setting [11] is given as “FALSE”.
EKPVPTLPQFTMGPNV had an HD2 confidence under setting [9] of 3.
ELDKEIKNSFNPEAQVFMPISDPASSV: the motif_found entry under setting [12] is “FALSE”.
As to “ELDTNDDDIVFEDFARQRLKGMKDD,DDDIVFEDFARQRL [ARRB1]”, where the note is “bait AP2B1_adaptin__P63010_700_937, library HD2, benchmarking set of validated motif instances, TRUE = motif instance recovered in the ProP-PD selection”, the motif_found entry is on record as “FALSE”.
As for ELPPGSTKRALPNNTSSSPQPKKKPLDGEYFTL, the motif_found result under setting [7] is “FALSE”.
As for ELSMFQLPTLNFSPEQ, the confidence (bait ANKRA2_Ank__Q9H9E1_142_313) is 3.
Where the note is “bait NEDD4_WW_4_P46934_890_928”, EPCGQRDSPPDYHLLF came in with a p3_HD2 confidence of 4, a p3_HD2 mean counts of 3356 and a p3_HD2 count proportions of 0.1373.
Consider EPSKPAATRKRRWSAPESRK, for which the motif_found entry under setting [7] was “FALSE”.
Under setting [5], EPSTTPNNWADFSSTW returned an HD confidence of 3, an HD count proportions of 0.0006275 and an HD mean counts of 1.5. Moreover, where the note is “bait AP2B1_adaptin__P63010_700_937, library HD2 P8”, the HD2 confidence stood at 4. For the same substance, the HD2_endomembrane confidence (bait AP2B1_adaptin__P63010_700_937, library HD2 P8 endomembrane) is reported as 4.
Consider EQVASKGTGLNPNAKVWQEIAPGNTDA, for which the motif_found entry under setting [12] is given as “FALSE”.
Turning to ERSGVIREVMIIEVSSSEEE, under setting [6], the motif_found result was “FALSE”.
Consider ESAKAADDPENGERESHTPV, for which the motif_found result under setting [13] is given as “FALSE”.
Regarding ESEDYSQPSTSSSIIYSSQ, under “library HD2, bait USP7_MATH-TRAF__Q93009_53_206, validated benchmark motif instance, in_library_check TRUE, TRUE/FALSE = instance recovered in ProP-PD selection”, the motif_found entry is given as “FALSE”.
ESFGGGFADFSTLSKV came in with a best_specificity (bait AP2B1_adaptin__P63010_700_937, library HD2, best matching peptide) of 1. Under “bait AP2B1_adaptin__P63010_700_937, library HD2, confidence level of best matching peptide (4 = High, 2 or 3 = Medium, 1 = Low)”, this substance returned a best_confidence of 3.
Turning to ESGSLEDDWDFLPPKKIKD, the motif_found entry by setting is: under setting [2], “FALSE”; under setting [3], “FALSE”.
For the setting “bait ANKRA2_Ank__Q9H9E1_142_313, library HD2 P8”, ESSNLCMPDLPHLLAF had an HD2 confidence of 4.
In the case of ETPGDGKPPALPPKQS, where the note is “bait CRK_SH3_1_P46108_124_198”, the p3_HD2 confidence is 3, the p3_HD2 mean counts is reported as 437.0 and the p3_HD2 count proportions was 0.01474.
Consider ETRICKIYDSPCLPEAEAMFA, for which the motif_found entry under setting [8] is “FALSE”.
Consider FADFSTLSKVNNEDPF, for which, under setting [5], the HD confidence was 3, the HD count proportions is on record as 0.0005532 and the HD mean counts stood at 1.25.
Regarding FASKPPTTNPFL-------, under setting [1], the motif_found result is on record as “FALSE”.
Consider FASQEKFFQELFDSELASQ, for which the motif_found entry under setting [11] is on record as “FALSE”.
Take FATLPRKKNPFEESSETWD: the motif_found entry under setting [1] was “FALSE”.
On to “FDIDMDAPETERAAVAIQSQFRKFQKKKAGSQS,DMDAPETERAAVAIQSQFRKFQKKKAGSQS---- [PCP4]”, for which the motif_found entry (bait CALM1_EF-hand__P0DP23_2_149, library HD2, benchmarking set of validated motif instances, TRUE = motif instance recovered in the ProP-PD selection) is “FALSE”.
In the case of FEAQWAALEGKATVEK, the motif_found entry under setting [10] was “TRUE”. Besides, under setting [14], the best_confidence stood at 3. The same substance displayed a best_specificity under setting [15] of 1.
Taken in the same sequence, the figures for FEAQWAALENKSKQRT were “TRUE”, 3 and 0.97.
FFAQLQLDEETGEFLPIQPA: the motif_found result under setting [13] was “FALSE”.
In the case of FGPPPQVPSRPNRAPPGVPS [DNM1], the motif_found entry (bait CRK_SH3_1_P46108_124_198, library HD2, benchmarking set of validated motif instances, TRUE = motif instance recovered in the ProP-PD selection) was “FALSE”.
With FITGLTRTNPFSDRTAAPG, the motif_found entry under setting [1] is reported as “FALSE”.
As for FLGNGNELEWEDDTPVATAKNMPG, the motif_found result under setting [4] is on record as “FALSE”.
In the case of “FLKLKNAATLIQRHWRGHNCRKNYGLMRLGF [MYO7A 771-787]”, the motif_found result (HD2 library, bait CALM1_EF-hand__P0DP23_2_149, benchmark motif instance, in_library_check FALSE, in_library_coverage 0) is on record as “FALSE”.
